Assay results taken from PubChem BioAssay AID2060602 (Molecular Pharmacology Branch, DTP, NCI, 2025).

Tested on: 648629-189-R-J1-PDC complex spheroids viability
Experiment: Anticancer human tumor 648629-189-R-J1-PDC patient-derived bladder carcinoma cell line growth inhibition [CLK]
Conditions: for IC50: curve of first compound; for viability, T/C: stronger effect = lower value
Text: A high-throughput screen of multi-cell type tumor spheroids was designed to identify active combinations of […] and targeted small molecules. Complex spheroids include a stromal component modeled by human endothelial cells (HUVEC) and fibroblasts modeled by human mesenchymal stem cells (MSCs). The concentration ranges selected for each drug and investigational agent were based upon clinically achievable concentrations if the clinical Cmax of the agent was known.
Compounds. The drugs and investigational agents: cirtuvivint (SM08502; NSC835563), CC-671 (NSC850746), vemurafenib (NSC761431), tapotoclax (NSC804041), sotorasib (NSC818433), adagrasib (NSC831453), MRTX-1133 (NSC836407), BAY2416964 (NSC825713), copanlisib (NSC816437), inavolisib (NSC800729), abemaciclib (NSC768073), osimertinib (NSC779217), entinostat (NSC756642), eltanexor (KPT-8602, NSC794443), venetoclax (NSC766270), ceralasertib (NSC777638), bortezomib (NSC756655), olaparib (NSC753686), talazoparib (NSC767125), alisertib (NSC759677), peposertib (NSC802822), gemcitabine (NSC613327), 5-fluorouracil (NSC19893), SN-38 (NSC673596), oxaliplatin (NSC266046), paclitaxel (NSC125973), and doxorubicin (NSC123127), were obtained from the National Cancer Institute (NCI) Developmental Therapeutics Program Chemical Repository. The FDA-approved anticancer drug set is available from the Developmental Therapeutics Program at https://dtp.cancer.gov/organization/dscb/obtaining/available plates.htm. […] The stock solutions were prepared in dimethyl sulfoxide (DMSO, Sigma-Aldrich, St. Louis, MO, cat. D2650), except for the platinum complexes which were prepared in saline (Quality Biological, Gaithersburg, MD, cat. 114-055-101), at 800-fold the tested concentration and stored at -70 degrees C prior to their use. All drugs and investigational agents were tested over a range starting from a high concentration at or near the clinical Cmax and decreasing in half-log increments. If the clinical Cmax for an agent had not been determined, the highest concentration tested was 10 microM.
Cell Culture. All cells were maintained in an incubator at 37 degrees C and 5% CO2 with 95% humidity. The PDC lines were cultured according to standard operating procedures established by the NCI PDMR. Briefly, all PDCs were thawed and cultured in Matrigel-coated flasks prepared with a working solution of 1X Ham's F-12 nutrient mix, without supplementation (Invitrogen, Waltham, MA, cat. 11765054), 100 U/mL penicillin-streptomycin (Invitrogen, cat. 15140122), and 2.5% Matrigel (Corning Inc., Corning, NY, cat. 354248) for the first three passages. The 947758-054-R-J2-PDC line was cultured in 6B/Colon 1A media, which includes advanced DMEM/F-12 (Thermo Fisher Scientific, cat. 12634028), 10 mM HEPES (Thermo Fisher Scientific, cat. 15630080), 1X GlutaMAX supplement (Thermo Fisher Scientific, cat. 35050061), 0.1 mg/mL primocin (InvivoGen, cat. ant-pm-2), 10% defined fetal bovine serum, heat inactivated (HyClone Laboratories Inc., cat. SH30070.03HI), 1.25 mM N-Acetyl-L-cysteine (Sigma-Aldrich, cat. A9165), 10 mM nicotinamide (Sigma-Aldrich, cat. N0636), 1X B-27 supplement (Thermo Fisher Scientific, cat. 17504044), 1X N-2 supplement (Thermo Fisher Scientific, cat. 17502048), and 10 microM Y-27632 dihydrochloride (Tocris Bioscience, cat. 1254). The 876862-298-R-J1-PDC was cultured in 6E media, which includes all 6B/Colon 1A media components plus 50% L-WRN conditioned media (ATCC, cat. CRL-3276), 50 ng/mL recombinant human EGF recombinant protein (hEGF; Thermo Fisher Scientific, cat. PHG0311), 10 ng/mL recombinant human fibroblast growth factor 10 (hGFG-10; PeproTech, cat. 100-26), 1 ng/mL recombinant human fibroblast growth factor 2 (hFGF-2; PeproTech, cat. 100-18B), and 1 µM prostaglandin E2 (PGE2; Tocris, cat. 2296). The 227483-062-R1-J1-PDC line was cultured in Panc media, containing all 6E components except hFGF-2, with the addition of 500 nM SB-431542 (Selleckchem, cat. S1067) and 10 nM gastrin (Tocris, cat. 3006). […]

[1] = second compound 0.0316 µM, first compound 0.0316 µM
[2] = second compound 0.0316 µM, first compound 0.1 µM
[3] = second compound 0.0316 µM, first compound 0.316 µM
[4] = second compound 0.0316 µM, first compound 1 µM
[5] = second compound 0.0316 µM, first compound 3.16 µM
[6] = second compound 0.0316 µM, first compound 10 µM
[7] = second compound 0.1 µM, first compound 0.0316 µM
[8] = second compound 0.1 µM, first compound 0.1 µM
[9] = second compound 0.1 µM, first compound 0.316 µM
[10] = second compound 0.1 µM, first compound 1 µM
[11] = second compound 0.1 µM, first compound 3.16 µM
[12] = second compound 0.1 µM, first compound 10 µM
[13] = second compound 0.316 µM, first compound 0.0316 µM
[14] = second compound 0.316 µM, first compound 0.1 µM
[15] = second compound 0.316 µM, first compound 0.316 µM
[16] = second compound 0.316 µM, first compound 1 µM
[17] = second compound 0.316 µM, first compound 3.16 µM
[18] = second compound 0.316 µM, first compound 10 µM
[19] = second compound 1 µM, first compound 0.0316 µM
[20] = second compound 1 µM, first compound 0.1 µM
[21] = second compound 1 µM, first compound 0.316 µM
[22] = second compound 1 µM, first compound 1 µM
[23] = second compound 1 µM, first compound 3.16 µM
[24] = second compound 1 µM, first compound 10 µM
[25] = second compound 3.16 µM, first compound 0.0316 µM
[26] = second compound 3.16 µM, first compound 0.1 µM
[27] = second compound 3.16 µM, first compound 0.316 µM
[28] = second compound 3.16 µM, first compound 1 µM
[29] = second compound 3.16 µM, first compound 3.16 µM
[30] = second compound 3.16 µM, first compound 10 µM
[31] = second compound 10 µM, first compound 0.0316 µM
[32] = second compound 10 µM, first compound 0.1 µM
[33] = second compound 10 µM, first compound 0.316 µM
[34] = second compound 10 µM, first compound 1 µM
[35] = second compound 10 µM, first compound 3.16 µM
[36] = second compound 10 µM, first compound 10 µM
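For viability, T/C in this document: drug exposure lasted seven days before viability readout; 100% = DMSO vehicle control wells.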

Structure (SMILES): C=C(F)C(=O)N1CCN(c2nc(OCC3CCCN3C)nc3c2CCN(c2cccc4cccc(Cl)c24)C3)CC1CC#N (centres undefined) + CN1CCN(c2cc(C(=O)Nc3cc4cc(-c5cnn(C)c5)ccc4cn3)ccn2)CC1
- IC50 (second compound 0.0316 µM): 5690 nM
- IC50 (second compound 0.1 µM): 5430 nM
- IC50 (second compound 0.316 µM): < 31.6 nM
- IC50 (second compound 1 µM): < 31.6 nM
- IC50 (second compound 3.16 µM): < 31.6 nM
- IC50 (second compound 10 µM): < 31.6 nM
- viability, T/C [1]: 111%
- viability, T/C [2]: 105%
- viability, T/C [3]: 109%
- viability, T/C [4]: 126%
- viability, T/C [5]: 102%
- viability, T/C [6]: 0.2%
- viability, T/C [7]: 106%
- viability, T/C [8]: 114%
- viability, T/C [9]: 98.5%
- viability, T/C [10]: 106%
- viability, T/C [11]: 94.2%
- viability, T/C [12]: 0.16%
- viability, T/C [13]: 46%
- viability, T/C [14]: 45.1%
- viability, T/C [15]: 50%
- viability, T/C [16]: 50.1%
- viability, T/C [17]: 47.5%
- viability, T/C [18]: 0.75%
- viability, T/C [19]: 0.54%
- viability, T/C [20]: 0.36%
- viability, T/C [21]: 0.62%
- viability, T/C [22]: 0.47%
- viability, T/C [23]: 0.48%
- viability, T/C [24]: 0.1%
- viability, T/C [25]: 0.13%
- viability, T/C [26]: 0.15%
- viability, T/C [27]: 0.17%
- viability, T/C [28]: 0.16%
- viability, T/C [29]: 0.14%
- viability, T/C [30]: 0.11%
- viability, T/C [31]: 0.21%
- viability, T/C [32]: 0.19%
- viability, T/C [33]: 0.21%
- viability, T/C [34]: 0.24%
- viability, T/C [35]: 0.25%
- viability, T/C [36]: 0.21%

Structure (SMILES): CC(CO)NC(=O)c1cc(-c2ccc(Cl)cc2)nn(-c2cnn(C)c2)c1=O (centres undefined) + CN1CCN(c2cc(C(=O)Nc3cc4cc(-c5cnn(C)c5)ccc4cn3)ccn2)CC1
- IC50 (second compound 0.0316 µM): > 10000 nM
- IC50 (second compound 0.1 µM): > 10000 nM
- IC50 (second compound 0.316 µM): < 31.6 nM
- IC50 (second compound 1 µM): < 31.6 nM
- IC50 (second compound 3.16 µM): < 31.6 nM
- IC50 (second compound 10 µM): < 31.6 nM
- viability, T/C [1]: 109%
- viability, T/C [2]: 109%
- viability, T/C [3]: 99.3%
- viability, T/C [4]: 125%
- viability, T/C [5]: 109%
- viability, T/C [6]: 85.6%
- viability, T/C [7]: 103%
- viability, T/C [8]: 100%
- viability, T/C [9]: 94.5%
- viability, T/C [10]: 114%
- viability, T/C [11]: 105%
- viability, T/C [12]: 84.7%
- viability, T/C [13]: 38.1%
- viability, T/C [14]: 51.2%
- viability, T/C [15]: 44.7%
- viability, T/C [16]: 56.9%
- viability, T/C [17]: 47.2%
- viability, T/C [18]: 43.6%
- viability, T/C [19]: 0.43%
- viability, T/C [20]: 0.37%
- viability, T/C [21]: 0.32%
- viability, T/C [22]: 0.48%
- viability, T/C [23]: 0.38%
- viability, T/C [24]: 0.26%
- viability, T/C [25]: 0.14%
- viability, T/C [26]: 0.17%
- viability, T/C [27]: 0.16%
- viability, T/C [28]: 0.18%
- viability, T/C [29]: 0.17%
- viability, T/C [30]: 0.18%
- viability, T/C [31]: 0.22%
- viability, T/C [32]: 0.25%
- viability, T/C [33]: 0.22%
- viability, T/C [34]: 0.23%
- viability, T/C [35]: 0.24%
- viability, T/C [36]: 0.22%
